PubChem BioAssay (NCI)
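Each compound was tested at five concentrations against cells in 96-well plates for 48 hours. GI50 = concentration required for 50% inhibition of growth. TGI: concentration producing complete growth inhibition.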

Experiments:
Assay in all cases: NCI tumour cell line growth inhibition, 48 h
EKVX NSCLC = tested on: EKVX NSCLC
SNB-19 CNS = tested on: SNB-19 CNS
SW-620 colon = tested on: SW-620 colon
SN12C renal = tested on: SN12C renal
U251 CNS = tested on: U251 CNS
HCC-2998 colon = tested on: HCC-2998 colon
786-0 renal = tested on: 786-0 renal
HS 578T breast = tested on: HS 578T breast
NCI-H23 lung = tested on: NCI-H23 lung
LOX IMVI melanoma = tested on: LOX IMVI melanoma
UO-31 renal = tested on: UO-31 renal
SF-539 CNS = tested on: SF-539 CNS
NCI-H460 lung = tested on: NCI-H460 lung
SK-OV-3 ovarian = tested on: SK-OV-3 ovarian
NCI-H226 lung = tested on: NCI-H226 lung
NCI-H522 lung = tested on: NCI-H522 lung
IGROV1 ovarian = tested on: IGROV1 ovarian
OVCAR-4 ovarian = tested on: OVCAR-4 ovarian
SF-268 CNS = tested on: SF-268 CNS
HOP-92 NSCLC = tested on: HOP-92 NSCLC
HOP-62 NSCLC = tested on: HOP-62 NSCLC
K-562 leukemia = tested on: K-562 leukemia
RPMI-8226 leukemia = tested on: RPMI-8226 leukemia
HCT-116 colon = tested on: HCT-116 colon
TK-10 renal = tested on: TK-10 renal
CCRF-CEM leukemia = tested on: CCRF-CEM leukemia
KM12 colon = tested on: KM12 colon
SK-MEL-28 melanoma = tested on: SK-MEL-28 melanoma
CAKI-1 renal = tested on: CAKI-1 renal
HCT-15 colon = tested on: HCT-15 colon
MOLT-4 leukemia = tested on: MOLT-4 leukemia
SNB-75 CNS = tested on: SNB-75 CNS
OVCAR-8 ovarian = tested on: OVCAR-8 ovarian
HT29 colon = tested on: HT29 colon
ACHN renal = tested on: ACHN renal
RXF 393 renal = tested on: RXF 393 renal
MCF7 breast = tested on: MCF7 breast
COLO 205 colon = tested on: COLO 205 colon
MALME-3M melanoma = tested on: MALME-3M melanoma
SK-MEL-5 melanoma = tested on: SK-MEL-5 melanoma
PC-3 prostate = tested on: PC-3 prostate
MDA-MB-435 = tested on: MDA-MB-435
T-47D breast = tested on: T-47D breast
NCI/ADR-RES ovarian = tested on: NCI/ADR-RES ovarian
BT-549 breast = tested on: BT-549 breast
A498 renal = tested on: A498 renal
SF-295 CNS = tested on: SF-295 CNS
SK-MEL-2 melanoma = tested on: SK-MEL-2 melanoma
OVCAR-3 ovarian = tested on: OVCAR-3 ovarian
UACC-62 melanoma = tested on: UACC-62 melanoma
A549 NSCLC = tested on: A549 NSCLC
DU-145 prostate = tested on: DU-145 prostate
OVCAR-5 ovarian = tested on: OVCAR-5 ovarian
HL-60(TB) leukemia = tested on: HL-60(TB) leukemia
MDA-MB-231 breast = tested on: MDA-MB-231 breast
M14 melanoma = tested on: M14 melanoma

CCNc1nc(N2CC(=O)Nc3cc(OC)ccc32)c2ccccc2n1
TGI (EKVX NSCLC): > 100000 nM | GI50 (SNB-19 CNS): 0.67 nM | TGI (SNB-19 CNS): > 100000 nM | GI50 (SW-620 colon): 0.378 nM | TGI (SW-620 colon): > 100000 nM | GI50 (SN12C renal): 1.37 nM | TGI (SN12C renal): > 100000 nM | GI50 (U251 CNS): 0.437 nM | TGI (U251 CNS): > 100000 nM | GI50 (HCC-2998 colon): 0.614 nM | GI50 (786-0 renal): 9.94 nM | TGI (786-0 renal): > 100000 nM | GI50 (HS 578T breast): 1.64 nM | TGI (HS 578T breast): 47800 nM | GI50 (NCI-H23 lung): 0.554 nM | TGI (NCI-H23 lung): > 100000 nM | GI50 (LOX IMVI melanoma): 0.693 nM | TGI (LOX IMVI melanoma): > 100000 nM | TGI (UO-31 renal): > 100000 nM | GI50 (SF-539 CNS): 1.1 nM | TGI (SF-539 CNS): 6.55 nM | GI50 (NCI-H460 lung): 0.365 nM | TGI (NCI-H460 lung): > 100000 nM | GI50 (SK-OV-3 ovarian): 0.483 nM | TGI (SK-OV-3 ovarian): 13.4 nM | TGI (NCI-H226 lung): > 100000 nM | GI50 (NCI-H522 lung): 0.51 nM | TGI (NCI-H522 lung): 7.83 nM | GI50 (IGROV1 ovarian): 1.84 nM | TGI (IGROV1 ovarian): 14100 nM | TGI (OVCAR-4 ovarian): > 100000 nM | GI50 (SF-268 CNS): 1.39 nM | TGI (SF-268 CNS): > 100000 nM | GI50 (HOP-92 NSCLC): 1260 nM | TGI (HOP-92 NSCLC): 9690 nM | GI50 (HOP-62 NSCLC): 2.27 nM | TGI (HOP-62 NSCLC): 14200 nM | GI50 (K-562 leukemia): 0.351 nM | TGI (K-562 leukemia): > 100000 nM | GI50 (RPMI-8226 leukemia): 0.471 nM | TGI (RPMI-8226 leukemia): 24300 nM | GI50 (HCT-116 colon): 0.361 nM | TGI (HCT-116 colon): > 100000 nM | GI50 (TK-10 renal): 82.2 nM | TGI (TK-10 renal): > 100000 nM | GI50 (CCRF-CEM leukemia): 0.404 nM | TGI (CCRF-CEM leukemia): > 100000 nM | GI50 (KM12 colon): 0.404 nM | TGI (KM12 colon): > 100000 nM | GI50 (SK-MEL-28 melanoma): 1700 nM | TGI (SK-MEL-28 melanoma): > 100000 nM | GI50 (CAKI-1 renal): 2.2 nM | TGI (CAKI-1 renal): > 100000 nM | GI50 (HCT-15 colon): 0.609 nM | TGI (HCT-15 colon): > 100000 nM | GI50 (MOLT-4 leukemia): 0.472 nM | TGI (MOLT-4 leukemia): > 100000 nM | GI50 (SNB-75 CNS): 0.433 nM | TGI (SNB-75 CNS): > 100000 nM | GI50 (OVCAR-8 ovarian): 0.945 nM | TGI (OVCAR-8 ovarian): > 100000 nM | GI50 (HT29 colon): 0.334 nM | TGI (HT29 colon): 10 nM | GI50 (ACHN renal): 1.39 nM | TGI (ACHN renal): > 100000 nM | GI50 (RXF 393 renal): 1 nM | GI50 (MCF7 breast): 0.369 nM | TGI (MCF7 breast): > 100000 nM | GI50 (COLO 205 colon): 0.35 nM | TGI (COLO 205 colon): 2.07 nM | GI50 (MALME-3M melanoma): 7570 nM | TGI (MALME-3M melanoma): > 100000 nM | GI50 (SK-MEL-5 melanoma): 0.456 nM | TGI (SK-MEL-5 melanoma): 3.37 nM | GI50 (PC-3 prostate): 0.58 nM | TGI (PC-3 prostate): > 100000 nM | GI50 (MDA-MB-435): 0.193 nM | TGI (MDA-MB-435): 0.442 nM | GI50 (T-47D breast): 253 nM | TGI (T-47D breast): 52900 nM | GI50 (NCI/ADR-RES ovarian): 0.399 nM | TGI (NCI/ADR-RES ovarian): 15 nM | GI50 (BT-549 breast): 2.37 nM | TGI (BT-549 breast): 3910 nM | GI50 (A498 renal): 1.51 nM | GI50 (SF-295 CNS): 1.29 nM | TGI (SF-295 CNS): 6.14 nM | TGI (SK-MEL-2 melanoma): 42700 nM | GI50 (OVCAR-3 ovarian): 0.352 nM | GI50 (UACC-62 melanoma): 0.54 nM | TGI (UACC-62 melanoma): > 100000 nM | GI50 (A549 NSCLC): 0.737 nM | TGI (A549 NSCLC): > 100000 nM | GI50 (DU-145 prostate): 0.435 nM | TGI (DU-145 prostate): 12100 nM | GI50 (OVCAR-5 ovarian): 10.7 nM | TGI (OVCAR-5 ovarian): > 100000 nM | GI50 (HL-60(TB) leukemia): 0.235 nM | TGI (HL-60(TB) leukemia): 0.581 nM | GI50 (MDA-MB-231 breast): 0.553 nM | TGI (MDA-MB-231 breast): > 100000 nM | GI50 (M14 melanoma): 0.363 nM | TGI (M14 melanoma): > 100000 nM
